Assay results: US20150266850A1 (E.I.DU PONT DE NEMOURS AND COMPANY, priority 2012, published 2015)
Marks after values point to notes of the source that are not given here.

What was measured:
Type in all cases: in vivo
[1] = test system: Erysiphe graminis f. sp. tritici; experiment: Test A: wheat powdery mildew, preventive spray on wheat seedlings, visual disease rating; conditions: 100 = 100% disease control; for pest or weed control at 40 ppm / pest or weed control at 50 ppm: Blumeria graminis, 192 h
Excerpt: (§1) General protocol for preparing test suspensions for Tests A-E: the test compounds were first dissolved in acetone in an amount equal to 11% of the final volume and then suspended at the desired concentration (in ppm) in acetone and purified water (50/50 mix by volume) containing 250 ppm of the surfactant Trem® 014 (polyhydric alcohol esters). The resulting test suspensions were then used in Tests A-E. Spraying a 200 ppm test suspension to the point of run-off on the test plants was the equivalent of a rate of 800 g/ha.
The test suspension was sprayed to the point of run-off on wheat seedlings. The following day the seedlings were inoculated with a spore dust of Erysiphe graminis f. sp. tritici, (the causal agent of wheat powdery mildew) and incubated in a growth chamber at 20° C. for 8 days, after which time disease ratings were visually made.
(§2) Results for Tests A-E are given in Table A. In the Table, a rating of 100 indicates 100% disease control and a rating of 0 indicates no disease control (relative to the controls). A dash (-) indicates no test results. All results are for 200 ppm except where followed by an “*”, which indicates 40 ppm or “**”, which indicates 50 ppm.

[2] = test system: Puccinia recondita f sp. tritici; experiment: Test B: wheat leaf rust, preventive spray on wheat seedlings, visual disease rating; conditions: 100 = 100% disease control; for pest or weed control at 40 ppm / pest or weed control at 50 ppm: 192 h
Excerpt: as §1
The test suspension was sprayed to the point of run-off on wheat seedlings. The following day the seedlings were inoculated with a spore suspension of Puccinia recondita f sp. tritici (the causal agent of wheat leaf rust) and incubated in a saturated atmosphere at 20° C. for 24 h, and then moved to a growth chamber at 20° C. for 7 days, after which time disease ratings were visually made.
as §2

Septoria tritici = experiment: Test C: wheat leaf blotch, preventive spray on wheat seedlings, visual disease rating; conditions: 100 = 100% disease control; for pest or weed control at 40 ppm: Zymoseptoria tritici, 504 h
Excerpt: as §1
(§3) The test suspension was sprayed to the point of run-off on wheat seedlings. The following day the seedlings were inoculated with a spore suspension of Septoria tritici (the causal agent of wheat leaf blotch) and incubated in a saturated atmosphere at 24° C. for 48 h, and then moved to a growth chamber at 20° C. for 19 days, after which time disease ratings were visually made.
as §2

Septoria nodorum = experiment: Test D: wheat glume blotch, preventive spray on wheat seedlings, visual disease rating; conditions: 100 = 100% disease control; for pest or weed control at 40 ppm / pest or weed control at 50 ppm: Parastagonospora nodorum, 216 h
Excerpt: as §1
as §3, with “nodorum” for “tritici”, “glume” for “leaf”, “20°” for “24°”, “7” for “19”
as §2

Compound | Test A disease control rating ([1]; 40 ppm (*)) | Test B disease control rating ([2]; 40 ppm (*)) | Test C disease control rating (Septoria tritici; 40 ppm (*)) | Test D disease control rating (Septoria nodorum; 40 ppm (*)) | other results
COC(=O)NCc1cc(-n2ccc(-c3ccc(C(F)(F)F)cc3C)n2)ccc1C [Cmpd 100] | 99* % | 100* % | 97* % | 100* % | –
COC(=O)NCc1cc(-n2ccc(-c3ccc(C(F)(F)F)cc3OC)n2)ccc1C [Cmpd 101] | 99* % | 100* % | 94* % | 100* % | –
COC(=O)NCc1cc(-n2ccc(-c3ccc(Br)cc3C)n2)ccc1C [Cmpd 102] | 99* % | 100* % | 98* % | 100* % | –
COC(=O)NCc1cc(-n2ncc(-c3ccc(OCC#N)cc3C)n2)ccc1C [Cmpd 105] | 90* % | 99* % | 86* % | 100* % | –
C#CCOc1ccc(-c2cnn(-c3ccc(C)c(CNC(=O)OC)c3)n2)c(C)c1 [Cmpd 106] | 99* % | 100* % | 98* % | 100* % | –
CCOc1ccc(-c2cnn(-c3ccc(C)c(CNC(=O)OC)c3)n2)c(C)c1 [Cmpd 107] | 99* % | 100* % | 99* % | 100* % | –
C#Cc1ccc(-c2ccn(-c3ccc(C)c(CNC(=O)OC)c3)n2)c(C)c1 [Cmpd 112] | 100* % | 100* % | 97* % | 100* % | –
C=Cc1ccc(-c2ccn(-c3ccc(C)c(CNC(=O)OC)c3)n2)c(C)c1 [Cmpd 113] | 40* % | 99* % | 74* % | 100* % | –
CCOc1ccc(-n2ccc(-c3ccc(C)c(CNC(=O)OC)c3)n2)c(C)c1 [Cmpd 120] | – | – | – | – | Test A disease control rating ([1]; 50 ppm (**)): 100** %; Test B disease control rating ([2]; 50 ppm (**)): 100** %; Test C disease control rating (Septoria tritici; 50 ppm (**)): 99** %
COC(=O)NCc1cc(-c2ccn(-c3ccc(OC(C)C)cc3C)n2)ccc1C [Cmpd 121] | – | – | – | – | Test A disease control rating ([1]; 50 ppm (**)): 100** %; Test B disease control rating ([2]; 50 ppm (**)): 100** %; Test C disease control rating (Septoria tritici; 50 ppm (**)): 98** %
COC(=O)NCc1cc(-c2ccn(-c3ccc(OC4CCCCC4)cc3C)n2)ccc1C [Cmpd 122] | 87* % | 91* % | – | – | –
COC(=O)NCc1cc(-c2ccn(-c3ccc(C(C)(C)C)cc3C)n2)ccc1C [Cmpd 124] | 99* % | 100* % | – | – | –
CCCOc1ccc(-n2ccc(-c3ccc(C)c(CNC(=O)OC)c3)n2)c(C)c1 [Cmpd 125] | 98* % | 100* % | – | – | –
COCCOc1ccc(-n2ccc(-c3ccc(C)c(CNC(=O)OC)c3)n2)c(C)c1 [Cmpd 126] | 87* % | 100* % | – | – | –
COC(=O)NCc1cc(-n2ccc(-c3ccc(C)cc3Br)n2)ccc1C [Cmpd 127] | 100* % | 100* % | 93* % | 100* % | –
CCOc1ccc(-c2ccn(-c3ccc(C)c(CNC(=O)OC)c3)n2)c(C)c1 [Cmpd 128] | 99* % | 100* % | 98* % | 100* % | –
CCOc1cc(F)ccc1-c1ccn(-c2ccc(C)c(CNC(=O)OC)c2)n1 [Cmpd 129] | 98* % | 100* % | 68* % | 100* % | –

Compound | Test A disease control rating ([1]; 40 ppm (*)) | Test B disease control rating ([2]; 40 ppm (*)) | Test C disease control rating (Septoria tritici; 40 ppm (*)) | Test D disease control rating (Septoria nodorum; 40 ppm (*)) | other results
COC(=O)NCc1cc(-n2ccc(-c3ccc(C)nc3OC)n2)ccc1C [Cmpd 131] | 99* % | 100* % | 97* % | 100* % | –
COC(=O)NCc1cc(-n2ncc(-c3ccc(C(F)(F)F)cc3C(F)(F)F)n2)ccc1C [Cmpd 132] | – | – | – | – | Test A disease control rating ([1]; 50 ppm (**)): 100** %; Test B disease control rating ([2]; 50 ppm (**)): 99** %; Test D disease control rating (Septoria nodorum; 50 ppm (**)): 100** %
COC(=O)NCc1cc(-c2ccn(-c3ccc(C(C)C)cc3C)n2)ccc1C [Cmpd 133] | – | – | – | – | Test A disease control rating ([1]; 50 ppm (**)): 100** %; Test B disease control rating ([2]; 50 ppm (**)): 100** %; Test D disease control rating (Septoria nodorum; 50 ppm (**)): 100** %
COC(=O)NCc1cc(-c2ccn(-c3ccc(OCC(C)C)cc3C)n2)ccc1C [Cmpd 134] | – | – | – | – | Test A disease control rating ([1]; 50 ppm (**)): 99** %; Test B disease control rating ([2]; 50 ppm (**)): 100** %; Test D disease control rating (Septoria nodorum; 50 ppm (**)): 100** %
CCOc1ccc(-c2ccn(-c3ccc(C)c(CNC(=O)OC)c3)n2)c(F)c1 [Cmpd 137] | 100* % | 100* % | 97* % | 100* % | –
CCOc1cc(C)ccc1-c1ccn(-c2ccc(C)c(CNC(=O)OC)c2)n1 [Cmpd 138] | 99* % | 100* % | 95* % | 100* % | –
COC(=O)NCc1cc(-n2ccc(-c3ccc(C(C)=O)cc3C)n2)ccc1C [Cmpd 140] | 91* % | 100* % | 94* % | 100* % | –
COC(=O)NCc1cc(-n2ncc(-c3ccc(Br)cc3OC)n2)ccc1C [Cmpd 141] | 99* % | 100* % | 97* % | 100* % | –
CCOc1ccc(-c2ccn(-c3ccc(C)c(CNC(=O)OC)c3)n2)c(C)n1 [Cmpd 142] | 99* % | 100* % | 99* % | 100* % | –
COC(=O)NCc1cc(-n2ncc(-c3ccc(OC)cc3Br)n2)ccc1C [Cmpd 143] | 99* % | 100* % | 99* % | 100* % | –
COC(=O)NCc1cc(-c2ccn(-c3ccc(C)nc3C)n2)ccc1C [Compound 114, methyl N-[[5-[1-(2,6-dimethyl-3-pyridinyl)-1H-pyrazol-3-yl]-2-methylphenyl]methyl]carbamate] | – | – | – | – | pest or weed control at 40 ppm ([1]; 40 ppm (*)): 90%; pest or weed control at 40 ppm ([2]; 40 ppm (*)): 100%; pest or weed control at 40 ppm (Septoria tritici; 40 ppm (*)): 86%; pest or weed control at 40 ppm (Septoria nodorum; 40 ppm (*)): 100%
COC(=O)NCc1cc(-c2ccn(-c3ccc(OC(F)(F)F)cc3C)n2)ccc1C [Compound 123, methyl N-[[2-methyl-5-[1-[2-methyl-4-(trifluoromethoxy)phenyl]-1H-pyrazol-3-yl]phenyl]methyl]carbamate] | – | – | – | – | pest or weed control at 40 ppm ([1]; 40 ppm (*)): 99%; pest or weed control at 40 ppm ([2]; 40 ppm (*)): 100%
COC(=O)NCc1cc(-n2ccc(-c3ccc(C)nc3C)n2)ccc1C [Compound 130, methyl N-[[5-[3-(2,6-dimethyl-3-pyridinyl)-1H-pyrazol-1-yl]-2-methylphenyl]methyl]carbamate] | – | – | – | – | pest or weed control at 40 ppm ([1]; 40 ppm (*)): 96%; pest or weed control at 40 ppm ([2]; 40 ppm (*)): 99%; pest or weed control at 40 ppm (Septoria tritici; 40 ppm (*)): 86%; pest or weed control at 40 ppm (Septoria nodorum; 40 ppm (*)): 100%
COC(=O)NCc1cc(-n2ncc(-c3ccc(OC)nc3OC)[n+]2[O-])ccc1C [Compound 135] | – | – | – | – | pest or weed control at 50 ppm ([1]; 50 ppm (**)): 99%; pest or weed control at 50 ppm ([2]; 50 ppm (**)): 100%; pest or weed control at 50 ppm (Septoria nodorum; 50 ppm (**)): 100%
COC(=O)NCc1cc(-n2ncc(-c3ccc(OC)nc3OC)n2)ccc1C [Compound 136, methyl N-[[5-[4-(2,6-dimethoxy-3-pyridinyl)-2H-1,2,3-triazol-2-yl]-2-methylphenyl]methyl]carbamate] | – | – | – | – | pest or weed control at 50 ppm ([1]; 50 ppm (**)): 99%; pest or weed control at 50 ppm ([2]; 50 ppm (**)): 100%; pest or weed control at 50 ppm (Septoria nodorum; 50 ppm (**)): 100%
methyl N-[[5-[1-(2,6-dimethoxy-3-pyridinyl)-1H-pyrazol-3-yl]-2-methylphenyl]-methyl]carbamate [Compound 116] | – | – | – | – | Test A disease control rating ([1]; 50 ppm (**)): 100** %; Test B disease control rating ([2]; 50 ppm (**)): 100** %; Test C disease control rating (Septoria tritici; 50 ppm (**)): 99** %
